# Patent US9249129B2, “Morpholino substituted urea derivatives as mTOR inhibitors” (CELLZOME LIMITED, priority 2010, dated 2016)
# Key:
# Experiment in all cases: kinobeads assay with mass spectrometry detection of kinases (kinase selectivity profile)
# Assay type in all cases: binding
# kinases (kinome) [1] = target: T1, kinases (kinome) (Homo sapiens, UniProt O94768); conditions: DRAK2 (CAMK), IPI00916930
# T1 construct: determined in kinobeads assays with mass spectrometry detection of kinases as described previously; endogenous in cells; host or cells: cell lysate
# T1 sequence (O94768 1-372): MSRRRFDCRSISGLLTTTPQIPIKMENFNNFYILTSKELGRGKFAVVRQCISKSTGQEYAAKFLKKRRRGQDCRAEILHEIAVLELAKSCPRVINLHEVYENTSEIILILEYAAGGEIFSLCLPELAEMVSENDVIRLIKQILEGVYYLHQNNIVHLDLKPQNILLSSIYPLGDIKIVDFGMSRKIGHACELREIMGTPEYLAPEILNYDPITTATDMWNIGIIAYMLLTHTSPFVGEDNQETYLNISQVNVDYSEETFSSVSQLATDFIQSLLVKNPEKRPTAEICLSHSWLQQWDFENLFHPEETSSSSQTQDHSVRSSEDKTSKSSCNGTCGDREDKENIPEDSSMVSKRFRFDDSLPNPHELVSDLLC
# Text: (§1) The protein kinase complement of the human genome (the kinome) was described previously (Manning et al., 2002. Science 298(5600):1912-1934). Sequence accession numbers are defined by the International Protein Index (IPI) (Kersey et al., 2004. Proteomics 4(7):1985-1988).
# kinases (kinome) [2] = target: T2, kinases (kinome) (Homo sapiens, UniProt Q13188); conditions: MST2 (STE), IPI00411984
# T2 construct: determined in kinobeads assays with mass spectrometry detection of kinases as described previously; endogenous in cells; host or cells: cell lysate
# T2 sequence (Q13188 1-491): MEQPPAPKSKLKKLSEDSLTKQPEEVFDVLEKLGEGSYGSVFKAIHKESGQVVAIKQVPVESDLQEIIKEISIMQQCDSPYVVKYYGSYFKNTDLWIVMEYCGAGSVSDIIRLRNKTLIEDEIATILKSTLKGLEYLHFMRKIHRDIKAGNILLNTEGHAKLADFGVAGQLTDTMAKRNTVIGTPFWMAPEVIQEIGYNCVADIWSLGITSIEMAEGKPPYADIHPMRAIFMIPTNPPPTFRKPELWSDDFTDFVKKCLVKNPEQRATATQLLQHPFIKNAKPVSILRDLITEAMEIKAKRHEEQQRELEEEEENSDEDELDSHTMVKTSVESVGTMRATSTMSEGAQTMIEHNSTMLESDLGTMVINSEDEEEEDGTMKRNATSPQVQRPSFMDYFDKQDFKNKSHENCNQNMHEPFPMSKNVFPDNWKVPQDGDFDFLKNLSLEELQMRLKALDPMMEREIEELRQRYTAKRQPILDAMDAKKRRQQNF
# Text: as §1
# kinases (kinome) [3] = target: T3, kinases (kinome) (Homo sapiens, UniProt Q15131); conditions: CDK10 (CMGC), IPI00014873
# T3 construct: determined in kinobeads assays with mass spectrometry detection of kinases as described previously; endogenous in cells; host or cells: cell lysate
# T3 sequence (Q15131 whole entry): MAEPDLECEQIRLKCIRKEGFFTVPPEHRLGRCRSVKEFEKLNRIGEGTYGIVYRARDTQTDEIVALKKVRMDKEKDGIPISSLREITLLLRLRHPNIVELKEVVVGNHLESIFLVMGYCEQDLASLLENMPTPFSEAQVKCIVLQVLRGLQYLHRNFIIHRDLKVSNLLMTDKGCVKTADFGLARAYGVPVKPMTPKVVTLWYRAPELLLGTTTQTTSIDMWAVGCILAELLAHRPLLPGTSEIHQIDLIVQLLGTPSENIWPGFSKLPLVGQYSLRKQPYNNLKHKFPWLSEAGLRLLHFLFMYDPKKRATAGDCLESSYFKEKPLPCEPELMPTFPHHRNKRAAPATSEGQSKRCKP
# Text: as §1
# kinases (kinome) [4] = target: T4, kinases (kinome) (Homo sapiens, UniProt Q13535); conditions: ATR (Atypical), IPI00412298; 0.1 μM ranges
# T4 construct: determined in kinobeads assays with mass spectrometry detection of kinases as described previously; endogenous in cells; host or cells: cell lysate
# T4 sequence (Q13535 whole entry): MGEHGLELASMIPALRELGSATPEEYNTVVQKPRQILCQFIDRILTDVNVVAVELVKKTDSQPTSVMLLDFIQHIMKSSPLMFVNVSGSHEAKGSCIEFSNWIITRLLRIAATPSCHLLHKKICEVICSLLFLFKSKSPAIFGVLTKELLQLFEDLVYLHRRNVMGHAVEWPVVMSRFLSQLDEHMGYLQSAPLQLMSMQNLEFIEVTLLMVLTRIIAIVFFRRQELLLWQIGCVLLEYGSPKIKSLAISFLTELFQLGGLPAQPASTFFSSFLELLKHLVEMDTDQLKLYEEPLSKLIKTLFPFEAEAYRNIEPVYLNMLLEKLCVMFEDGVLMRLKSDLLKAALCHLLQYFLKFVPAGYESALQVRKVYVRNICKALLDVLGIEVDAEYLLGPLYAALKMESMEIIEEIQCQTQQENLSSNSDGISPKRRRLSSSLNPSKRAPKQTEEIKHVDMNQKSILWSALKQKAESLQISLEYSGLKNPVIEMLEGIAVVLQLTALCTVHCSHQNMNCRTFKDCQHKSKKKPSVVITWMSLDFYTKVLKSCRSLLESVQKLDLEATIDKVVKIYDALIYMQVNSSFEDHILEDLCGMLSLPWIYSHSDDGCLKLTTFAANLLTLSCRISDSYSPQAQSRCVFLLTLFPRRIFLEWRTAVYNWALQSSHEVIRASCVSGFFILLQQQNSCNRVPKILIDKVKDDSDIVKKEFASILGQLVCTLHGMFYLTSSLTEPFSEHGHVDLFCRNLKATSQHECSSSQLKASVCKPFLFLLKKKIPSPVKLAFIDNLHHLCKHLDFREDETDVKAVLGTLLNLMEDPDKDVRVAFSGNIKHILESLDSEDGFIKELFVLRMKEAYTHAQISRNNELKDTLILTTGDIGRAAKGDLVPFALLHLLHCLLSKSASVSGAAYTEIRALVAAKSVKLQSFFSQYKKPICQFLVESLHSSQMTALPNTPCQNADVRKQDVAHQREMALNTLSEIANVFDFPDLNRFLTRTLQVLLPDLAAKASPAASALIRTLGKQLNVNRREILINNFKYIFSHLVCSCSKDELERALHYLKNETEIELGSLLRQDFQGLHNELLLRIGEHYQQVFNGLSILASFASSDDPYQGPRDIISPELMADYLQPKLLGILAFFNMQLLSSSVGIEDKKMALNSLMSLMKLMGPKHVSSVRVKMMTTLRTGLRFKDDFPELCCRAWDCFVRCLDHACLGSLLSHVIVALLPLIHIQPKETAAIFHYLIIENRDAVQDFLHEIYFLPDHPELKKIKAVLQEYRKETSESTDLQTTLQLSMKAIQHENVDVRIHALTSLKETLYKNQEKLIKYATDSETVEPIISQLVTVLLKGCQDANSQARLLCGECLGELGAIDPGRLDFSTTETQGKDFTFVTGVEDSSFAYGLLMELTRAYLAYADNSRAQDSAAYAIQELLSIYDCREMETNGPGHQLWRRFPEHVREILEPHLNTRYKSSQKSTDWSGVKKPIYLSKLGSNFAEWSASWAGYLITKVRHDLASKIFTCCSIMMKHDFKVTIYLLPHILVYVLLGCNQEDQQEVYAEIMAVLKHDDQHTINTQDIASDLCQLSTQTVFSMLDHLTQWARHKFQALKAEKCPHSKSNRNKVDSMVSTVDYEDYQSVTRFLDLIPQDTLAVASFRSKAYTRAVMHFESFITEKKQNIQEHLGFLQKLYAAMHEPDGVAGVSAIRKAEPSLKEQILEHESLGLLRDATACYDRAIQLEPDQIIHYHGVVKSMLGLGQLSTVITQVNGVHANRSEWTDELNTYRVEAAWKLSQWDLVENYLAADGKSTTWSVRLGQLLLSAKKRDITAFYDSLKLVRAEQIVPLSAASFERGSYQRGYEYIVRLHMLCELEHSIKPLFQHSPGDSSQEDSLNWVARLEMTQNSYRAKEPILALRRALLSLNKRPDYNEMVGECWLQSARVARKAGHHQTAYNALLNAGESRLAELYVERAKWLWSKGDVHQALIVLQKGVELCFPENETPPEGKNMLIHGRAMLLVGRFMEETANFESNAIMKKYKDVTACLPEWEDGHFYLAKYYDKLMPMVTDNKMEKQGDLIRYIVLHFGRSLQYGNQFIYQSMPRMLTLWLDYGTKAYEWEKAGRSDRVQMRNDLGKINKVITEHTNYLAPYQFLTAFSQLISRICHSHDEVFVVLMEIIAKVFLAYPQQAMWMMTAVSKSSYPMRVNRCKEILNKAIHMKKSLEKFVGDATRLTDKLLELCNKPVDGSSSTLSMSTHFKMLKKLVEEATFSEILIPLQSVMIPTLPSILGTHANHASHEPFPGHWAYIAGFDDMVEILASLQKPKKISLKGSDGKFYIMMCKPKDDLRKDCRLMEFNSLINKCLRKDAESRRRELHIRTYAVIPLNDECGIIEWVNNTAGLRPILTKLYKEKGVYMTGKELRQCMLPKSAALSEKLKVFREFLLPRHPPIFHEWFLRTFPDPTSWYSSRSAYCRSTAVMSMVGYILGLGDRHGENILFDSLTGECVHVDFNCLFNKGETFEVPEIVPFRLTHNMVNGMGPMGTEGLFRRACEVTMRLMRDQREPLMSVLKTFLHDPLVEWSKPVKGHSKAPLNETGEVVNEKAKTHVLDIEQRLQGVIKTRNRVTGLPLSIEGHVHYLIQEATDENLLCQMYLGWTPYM
# Text: as §1
# kinases (kinome) [5] = target: T5, kinases (kinome) (Homo sapiens, UniProt Q99683); conditions: MAP3K5 (STE), IPI00412433
# T5 construct: determined in kinobeads assays with mass spectrometry detection of kinases as described previously; endogenous in cells; host or cells: cell lysate
# T5 sequence (Q99683 1-1374): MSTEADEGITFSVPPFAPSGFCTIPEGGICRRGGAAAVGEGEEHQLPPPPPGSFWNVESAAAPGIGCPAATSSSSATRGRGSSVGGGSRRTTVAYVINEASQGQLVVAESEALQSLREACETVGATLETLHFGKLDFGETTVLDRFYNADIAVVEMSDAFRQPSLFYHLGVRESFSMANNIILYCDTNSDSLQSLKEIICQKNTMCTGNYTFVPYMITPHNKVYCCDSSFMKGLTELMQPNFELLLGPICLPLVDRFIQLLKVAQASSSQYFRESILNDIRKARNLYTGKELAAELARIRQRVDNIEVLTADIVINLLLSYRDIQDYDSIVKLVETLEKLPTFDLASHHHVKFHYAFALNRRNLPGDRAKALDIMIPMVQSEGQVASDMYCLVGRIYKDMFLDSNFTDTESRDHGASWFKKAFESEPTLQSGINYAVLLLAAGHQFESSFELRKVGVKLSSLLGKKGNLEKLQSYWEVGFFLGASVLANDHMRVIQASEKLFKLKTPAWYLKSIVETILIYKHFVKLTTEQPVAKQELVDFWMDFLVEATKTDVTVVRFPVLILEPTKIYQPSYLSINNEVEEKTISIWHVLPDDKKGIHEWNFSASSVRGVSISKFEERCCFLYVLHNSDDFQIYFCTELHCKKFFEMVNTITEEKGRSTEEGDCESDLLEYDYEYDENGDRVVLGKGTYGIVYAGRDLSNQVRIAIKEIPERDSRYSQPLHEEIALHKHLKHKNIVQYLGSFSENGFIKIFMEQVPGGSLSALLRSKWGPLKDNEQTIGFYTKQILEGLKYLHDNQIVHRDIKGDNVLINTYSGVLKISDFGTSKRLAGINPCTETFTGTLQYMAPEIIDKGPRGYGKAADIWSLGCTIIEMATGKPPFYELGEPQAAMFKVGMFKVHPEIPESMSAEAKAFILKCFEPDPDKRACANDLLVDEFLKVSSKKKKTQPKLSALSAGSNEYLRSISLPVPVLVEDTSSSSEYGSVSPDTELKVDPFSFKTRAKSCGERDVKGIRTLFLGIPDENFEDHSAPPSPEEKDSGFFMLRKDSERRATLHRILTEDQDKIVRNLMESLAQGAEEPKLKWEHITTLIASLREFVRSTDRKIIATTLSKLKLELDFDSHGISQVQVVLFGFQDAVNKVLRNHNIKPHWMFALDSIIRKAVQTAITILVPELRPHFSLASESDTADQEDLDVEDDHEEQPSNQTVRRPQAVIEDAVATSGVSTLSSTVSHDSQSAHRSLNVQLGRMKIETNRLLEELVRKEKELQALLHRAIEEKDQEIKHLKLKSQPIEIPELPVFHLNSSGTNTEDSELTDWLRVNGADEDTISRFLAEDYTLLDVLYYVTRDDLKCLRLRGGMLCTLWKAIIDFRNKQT
# Text: as §1
# kinases (kinome) [6] = target: T6, kinases (kinome) (Homo sapiens, UniProt P49760); conditions: CLK2 (CMGC), IPI00028071
# T6 construct: determined in kinobeads assays with mass spectrometry detection of kinases as described previously; endogenous in cells; host or cells: cell lysate
# T6 sequence (P49760 whole entry): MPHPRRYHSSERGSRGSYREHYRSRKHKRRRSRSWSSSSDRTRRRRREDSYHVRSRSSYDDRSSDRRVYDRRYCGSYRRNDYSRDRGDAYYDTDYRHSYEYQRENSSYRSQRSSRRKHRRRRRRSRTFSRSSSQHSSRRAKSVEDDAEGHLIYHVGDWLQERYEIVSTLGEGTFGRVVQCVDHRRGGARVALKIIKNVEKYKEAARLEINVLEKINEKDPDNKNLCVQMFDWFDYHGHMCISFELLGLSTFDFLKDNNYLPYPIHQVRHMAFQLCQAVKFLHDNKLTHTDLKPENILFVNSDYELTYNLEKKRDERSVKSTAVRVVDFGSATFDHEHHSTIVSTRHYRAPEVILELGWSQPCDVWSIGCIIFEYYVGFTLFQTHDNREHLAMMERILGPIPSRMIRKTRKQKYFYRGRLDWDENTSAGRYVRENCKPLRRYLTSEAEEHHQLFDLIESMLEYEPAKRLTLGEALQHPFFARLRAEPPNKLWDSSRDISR
# Text: as §1
Structure (SMILES),IC50 (kinases (kinome) [1]) [µM],IC50 (kinases (kinome) [2]) [µM],IC50 (kinases (kinome) [3]) [µM],IC50 (kinases (kinome) [4]) [µM],IC50 (kinases (kinome) [5]) [µM],IC50 (kinases (kinome) [6]) [µM]
"CCNC(=O)Nc1ccc(-c2cc(-c3ccccc3C#N)nc(N3CCOC[C@@H]3C)n2)cc1 [Example 8, (S)-1-(4-(6-(2-cyanophenyl)-2-(3-methylmorpholino)pyrimidin-4-yl)phenyl)-3-ethylurea]",,,,,,> 10
"C[C@H]1COCCN1c1cc(-c2ccccn2)nc(-c2ccc(NC(=O)NCCO)cc2)n1 [Example 43, (S)-1-(2-hydroxyethyl)-3-(4-(4-(3-methylmorpholino)-6-(pyridin-2-yl)pyrimidin-2-yl)phenyl)urea]",,> 10,> 10,> 10,,> 10
"C[C@H]1COCCN1c1nc(-c2ccc(NC(=O)NC3CC3)cc2)cc(-c2ccccc2S(C)(=O)=O)n1 [Example 4, (S)-1-cyclopropyl-3-(4-(2-(3-methylmorpholino)-6-(2-(methylsulfonyl)phenyl)pyrimidin-4-yl)phenyl)urea]",> 10,,> 10,> 10,> 10,

# The next lines start with the values.
IC50 (kinases (kinome) [1]) [µM],IC50 (kinases (kinome) [2]) [µM],IC50 (kinases (kinome) [3]) [µM],IC50 (kinases (kinome) [4]) [µM],IC50 (kinases (kinome) [5]) [µM],IC50 (kinases (kinome) [6]) [µM],Structure (SMILES)
> 10,> 10,> 10,1.1 to 1.2,> 10,,"C[C@H]1COCCN1c1nc(-c2ccc(NC(=O)NC3CC3)cc2)cc(-c2cc(F)ccc2S(C)(=O)=O)n1 [Example 40, (S)-1-cyclopropyl-3-(4-(6-(5-fluoro-2-(methylsulfonyl)phenyl)-2-(3-methylmorpholino)pyrimidin-4-yl)phenyl)urea]"
> 10,> 10,,> 10,,> 10,"C[C@H]1COCCN1c1nc(-c2ccc(NC(=O)NC3CC3)cc2)cc(-c2cccnc2S(C)(=O)=O)n1 [Example 46, (S)-1-cyclopropyl-3-(4-(2-(3-methylmorpholino)-6-(2-(methylsulfonyl)pyridin-3-yl)pyrimidin-4-yl)phenyl)urea]"
,,,> 10,> 10,,"C[C@H]1COCCN1c1nc(-c2ccc(NC(=O)N[C@H]3CCC[C@@H]3O)cc2)cc(-c2cc(F)ccc2S(C)(=O)=O)n1 [Example 76, 1-(4-(6-(5-fluoro-2-(methylsulfonyl)phenyl)-2-((S)-3-methylmorpholino)pyrimidin-4-yl)phenyl)-3-((1S,2S)-2-hydroxycyclopentyl)urea]"
